Data on 6 compounds can be found in ChEMBL document CHEMBL5532639, “Heterocyclic pyrimidine derivatives as promising antibacterial agents” (Eur J Med Chem, 2023).

In brackets after ≈: the same amount, converted by molar mass.

For one experiment, the system named is Enterococcus raffinosus. Put plainly: Antibacterial activity against Enterococcus raffinosus assessed as bacterial growth inhibition incubated for 24 hrs by CLSI protocol based Mueller-Hinton broth assay. It counts as functional.
In experiment [1] the test system is Staphylococcus aureus. Put plainly: Antibacterial activity against Staphylococcus aureus assessed as bacterial growth inhibition incubated for 24 hrs by CLSI protocol based Mueller-Hinton broth assay. It counts as functional.
The subject of experiment [2] is Bacillus subtilis. Put plainly: Antibacterial activity against Bacillus subtilis assessed as zone of inhibition at 50 microg/ml by cup plate analysis. It counts as functional. The conditions noted are these: read-out: IZ.
A further experiment has as its system Bacillus pumilus. Put plainly: Antibacterial activity against Bacillus pumilus assessed as zone of inhibition at 50 microg/ml by cup plate analysis. The format is functional. The conditions noted are these: read-out: IZ.
Experiment [3] has as its system Escherichia coli. As to the kind of experiment: Antibacterial activity against Escherichia coli assessed as zone of inhibition at 50 microg/ml by cup plate analysis. The settings on record: read-out: IZ. It counts as functional.
A further experiment has as its system Proteus vulgaris. Put plainly: Antibacterial activity against Proteus vulgaris assessed as zone of inhibition at 50 microg/ml by cup plate analysis. It counts as functional. The conditions noted are these: read-out: IZ.
Experiment [4] concerns Salmonella typhimurium. As to the kind of experiment: Antibacterial activity against Salmonella typhimurium DT104 assessed as reduction in bacterial growth. The format is functional, Salmonella enterica subsp. enterica serovar Typhimurium. The conditions noted are these: Salmonella enterica.
Experiment [5] has as its system Escherichia coli. As to the kind of experiment: Antibacterial activity against Escherichia coli ATCC 25922 assessed as bacterial growth inhibition. It counts as functional.
Experiment [6] has as its system Staphylococcus aureus. Put plainly: Antibacterial activity against Staphylococcus aureus ATCC 3750 assessed as reduction in bacterial growth. It counts as functional.
Experiment [7] concerns Bacillus subtilis. As to the kind of experiment: Antibacterial activity against Bacillus subtilis 6633 assessed as reduction in bacterial growth. The format is functional.
In experiment [8] the test system is Pseudomonas aeruginosa. As to the kind of experiment: Antibacterial activity against Pseudomonas aeruginosa assessed as inhibition of microbial growth by broth micro-dilution method. The format is functional. (Broth dilution looks for growth in wells or tubes with falling amounts of substance.)
The subject of experiment [9] is Escherichia coli. As to the kind of experiment: Antibacterial activity against Escherichia coli assessed as inhibition of microbial growth by broth micro-dilution method. It counts as functional.
The subject of experiment [10] is Staphylococcus aureus. As to the kind of experiment: Antibacterial activity against Staphylococcus aureus assessed as inhibition of microbial growth by broth micro-dilution method. The format is functional.
Experiment [11] relates to Streptococcus pyogenes. Put plainly: Antibacterial activity against Streptococcus pyogenes assessed as inhibition of microbial growth by broth micro-dilution method. It counts as functional.
Experiment [12] has as its system Bacillus subtilis. Put plainly: Antibacterial activity against Bacillus subtilis ATCC 465 assessed as reduction in bacterial growth measured after 24 hrs by Mueller-Hinton broth assay. It counts as functional.
In experiment [13] the test system is Pseudomonas aeruginosa. As to the kind of experiment: Antibacterial activity against Pseudomonas aeruginosa ATCC 85327 assessed as reduction in bacterial growth measured after 24 hrs by Mueller-Hinton broth assay. It counts as functional.
Experiment [14] deals with Staphylococcus aureus. Put plainly: Antibacterial activity against Staphylococcus aureus assessed as bacterial growth inhibition by measuring zone of inhibition at 50 ug/ml by agar cup diffusion assay. The settings on record: read-out: IZ. It counts as functional.
In experiment [15] the test system is Escherichia coli. As to the kind of experiment: Antibacterial activity against Escherichia coli assessed as bacterial growth inhibition by measuring zone of inhibition at 50 ug/ml by agar cup diffusion assay. The format is functional. The conditions noted are these: read-out: IZ.
The test system of experiment [16] is Salmonella typhimurium. As to the kind of experiment: Antibacterial activity against Salmonella typhimurium DT104 assessed as bacterial growth inhibition by measuring zone of inhibition at 50 ug/ml by agar cup diffusion assay. The format is functional, Salmonella enterica subsp. enterica serovar Typhimurium. The conditions noted are these: Salmonella enterica, read-out: IZ.

Experiment [17] has as its system Bacillus subtilis. As to the kind of experiment: Antibacterial activity against Bacillus subtilis assessed as bacterial growth inhibition by measuring zone of inhibition at 50 ug/ml by agar cup diffusion assay. The conditions noted are these: read-out: IZ. The format is functional.
The test system of experiment [18] is Staphylococcus aureus. Put plainly: microbe, parasite or virus in culture. The conditions noted are these: ATCC 25923, 24 h.
Description: Antibacterial activity against Staphylococcus aureus ATCC 25923 assessed as reduction in bacterial growth measured after 24 hrs by Mueller-Hinton broth assay
The test system of experiment [19] is Escherichia coli. Put plainly: microbe, parasite or virus in culture. The conditions noted are these: ATCC 25922, 24 h.
Description: Antibacterial activity against Escherichia coli ATCC 25922 assessed as reduction in bacterial growth measured after 24 hrs by Mueller-Hinton broth assay
Another experiment concerns Micrococcus luteus. Put plainly: Antimicrobial activity against Micrococcus luteus assessed as diameter of inhibition zone incubated for 24 hrs by well diffusion assay. The format is functional. (In general: A growth-free zone around the sample is the usual read-out of agar diffusion tests.)
The subject of experiment [20] is Pseudomonas aeruginosa. As to the kind of experiment: Antimicrobial activity against Pseudomonas aeruginosa assessed as diameter of inhibition zone incubated for 24 hrs by well diffusion assay. The format is functional.
In experiment [21] the test system is Bacillus subtilis. As to the kind of experiment: Antimicrobial activity against Bacillus subtilis assessed as diameter of inhibition zone incubated for 24 hrs by well diffusion assay. The format is functional.
The subject of experiment [22] is Escherichia coli. As to the kind of experiment: Antibacterial activity against Escherichia coli assessed as reduction in bacterial growth incubated for 16 to 20 hrs by Mueller-Hinton broth based two-fold serial dilution method. It counts as functional. The conditions noted are these: time 16-20 hrs.
Experiment [23] concerns Streptococcus pyogenes. Put plainly: Antibacterial activity against Streptococcus pyogenes assessed as reduction in microbial growth incubated for 24 hrs by broth micro-dilution method. It counts as functional.
In experiment [24] the test system is Escherichia coli. Put plainly: Antibacterial activity against Escherichia coli assessed as reduction in bacterial growth by broth microdilution method. The format is functional.
Experiment [25] relates to Escherichia coli. As to the kind of experiment: Antibacterial activity Escherichia coli assessed as reduction in bacterial growth. It counts as functional.
For experiment [26], the system named is Pseudomonas aeruginosa. As to the kind of experiment: Antibacterial activity against Pseudomonas aeruginosa assessed as reduction in microbial growth after 18 hrs by MTT based broth dilution method. It counts as functional.
A further experiment concerns Klebsiella pneumoniae. Put plainly: Antibacterial activity against Klebsiella pneumoniae assessed as reduction in bacterial growth by broth microdilution method. It counts as functional.
The subject of experiment [27] is Bacillus subtilis. As to the kind of experiment: Antibacterial activity against Bacillus subtilis assessed as reduction in bacterial cell viability by well plate method. The format is functional.
Experiment [28] has as its system Staphylococcus epidermidis. Put plainly: Antibacterial activity against Staphylococcus epidermidis assessed as reduction in microbial growth. It counts as functional.

With `CC1(C)S[C@@H]2[C@H](NC(=O)Cc3ccccc3)C(=O)N2[C@H]1C(=O)O` [PENICILLIN G], the MIC is 93.5 µg/mL (≈ 280 µM) in the experiment on Enterococcus raffinosus; 24.4 µg/mL (≈ 73 µM) in the experiment with Staphylococcus aureus [1]; 5 µg/mL (≈ 15 µM) in the experiment on Salmonella typhimurium [4]; 5 µg/mL (≈ 15 µM) in the experiment with Escherichia coli [5]; 6 µg/mL (≈ 17.9 µM) with Staphylococcus aureus [6]; 22 µg/mL (≈ 65.8 µM) with Bacillus subtilis [7]. Further, the zone of inhibition at 50 µg/mL in the experiment on Bacillus subtilis [2] worked out at 25 mm; with Bacillus pumilus, 29 mm; in the experiment on Escherichia coli [3], 26 mm; with Proteus vulgaris, 28 mm.
In the case of `O=C(N[C@H](CO)[C@H](O)c1ccc([N+](=O)[O-])cc1)C(Cl)Cl` [CHLORAMPHENICOL], the MIC in the experiment on Pseudomonas aeruginosa [8] came to 50 µg/mL; in the experiment on Escherichia coli [9] it was 50 µg/mL; in the experiment with Staphylococcus aureus [10] it was 50 µg/mL; with Streptococcus pyogenes [11] it was 50 µg/mL; in the experiment on Bacillus subtilis [12], 4 µg/mL (≈ 12.4 µM); in the experiment on Pseudomonas aeruginosa [13], 256 µg/mL (≈ 792 µM). Besides, the MIC with Salmonella typhimurium [4] was 6 µg/mL (≈ 18.6 µM); in the experiment on Escherichia coli [5] it was 4 µg/mL (≈ 12.4 µM); in the experiment with Staphylococcus aureus [6], 5 µg/mL (≈ 15.5 µM); in the experiment with Bacillus subtilis [7], 6 µg/mL (≈ 18.6 µM); in the experiment with Staphylococcus aureus [18], 8 µg/mL (≈ 24.8 µM); against Escherichia coli [19], 4 µg/mL (≈ 12.4 µM). Further, the zone of inhibition at 50 µg/mL turned out to be 25 mm with Staphylococcus aureus [14], 18 mm with Escherichia coli [15], 24 mm in the experiment on Salmonella typhimurium [16] and 20 mm with Bacillus subtilis [17].
`Oc1ncnc(O)c1/N=N/c1ccc(/N=N/c2ccccc2)cc1`: the “inhibition zone (IZ)” value was found to be 18 mm with Micrococcus luteus, 12 mm in the experiment with Pseudomonas aeruginosa [20] and 13 mm with Bacillus subtilis [21].
`Nc1n[nH]c2nc(-c3ccccc3)nc(-c3ccc(Br)cc3)c12`: the MIC with Enterococcus raffinosus came to 12.3 µg/mL (≈ 33.6 µM); in the experiment on Staphylococcus aureus [1], 3.8 µg/mL (≈ 10.4 µM).
Regarding `Cc1ccc(-c2c(N)c(C#N)nc3[nH]c(=O)[nH]c(=O)c23)cc1`, the MIC with Bacillus subtilis [12] was 2 µg/mL (≈ 6.82 µM); in the experiment on Staphylococcus aureus [18], 32 µg/mL (≈ 109 µM); with Escherichia coli [19] it was 512 µg/mL (≈ 1750 µM).
In the case of `O=C(O)c1cn(C2CC2)c2cc(N3CCNCC3)c(F)cc2c1=O` [CIPROFLOXACIN], the MIC in the experiment on Escherichia coli [22] came to 25 µg/mL (≈ 75.4 µM); in the experiment with Streptococcus pyogenes [23] it was 12.5 µg/mL; in the experiment with Pseudomonas aeruginosa [8], 200 µg/mL; in the experiment with Escherichia coli [9], 25 µg/mL; with Staphylococcus aureus [10], 50 µg/mL; in the experiment with Streptococcus pyogenes [11], 50 µg/mL. Further, the MIC with Escherichia coli [24] was found to be 25 µg/mL (≈ 75.4 µM); with Escherichia coli [25], 22 µg/mL (≈ 66.4 µM); in the experiment on Pseudomonas aeruginosa [26], 22 µg/mL; with Klebsiella pneumoniae, 22 µg/mL (≈ 66.4 µM); with Bacillus subtilis [27], 24 µg/mL (≈ 72.4 µM); in experiment [28] it was 22 µg/mL.
